In US5756291A, “Aptamers specific for biomolecules and methods of making” (priority 1995, dated 1998):
Several values for one entry are separate records, joined by “and”; a condition that tells them apart may be missing. Equal values may be shown once.

Assays:
thrombin [1] = assay: Thrombin inhibition Ki; type: biochemical; settings: Table 7
Text: The binding affinity of the aptamers herein with respect to targets and other molecules is defined in terms of Kd. The value of this dissociation constant can be determined directly by well-known methods, and can be computed even for complex mixtures by methods such as those, for example, set forth in Caceci, M., et al., Byte (1984) 9:340-362. It has been observed, however, that for some small oligonucleotides, direct determination of Kd is difficult, and can lead to misleadingly high results. Under these circumstances, a competitive binding assay for the target molecule or other candidate substance may be conducted with respect to substances known to bind the target or candidate. The value of the concentration at which 50% inhibition occurs (Ki) is, under ideal conditions, equivalent to Kd. However, in no event can Ki be less than Kd. Thus, determination of Ki, in the alternative, sets a maximal value for the value of Kd. Under those circumstances where technical difficulties preclude accurate measurement of Kd, measurement of Ki can conveniently be substituted to provide an upper limit for Kd.
Independent verification of the Ki for the nonmodified 15-mer was made by determining the extent of thrombin inhibition with varying DNA concentration.

thrombin [2] = assay: Clotting time, thrombin-catalyzed conversion of fibrinogen to fibrin; type: biochemical; settings: thrombin 10 nM
Experimental: Clotting time for the thrombin-catalyzed conversion of fibrinogen (2.0 mg/ml in selection buffer) to fibrin at 37 C. was measured using a precision coagulation timer apparatus (Becton-Dickinson, Cat. nos. 64015, 64019, 64020). Thrombin (10 nM) incubated with fibrinogen alone clotted in 40 sec, thrombin incubated with fibrinogen and P1 nuclease (Boehringer-Mannheim, Indianapolis, Ind.) clotted in 39 sec, thrombin incubated with fibrinogen and aptamer clone #5 (200 nM) clotted in 115 sec, and thrombin incubated with fibrinogen, clone #5 (200 nM) and […] clotted in 40 sec. All incubations were carried out at 37 C. using reagents prewarmed to 37 C. Aptamer DNA or, when present, P1 nuclease, was added to the fibrinogen solution prior to addition of thrombin.

human serum albumin = assay: Filter binding specificity assay (Table 11), albumin; settings: human serum albumin 100 µM; listed as Clone 29 DNA
Experimental: (§1) Briefly, radiolabeled aptamer DNA at about a concentration of about 1 nM was incubated with the indicated protein for several minutes at room temperature, followed by filtration of the aptamer-protein mixture through a nitrocellulose filter. The filter was washed with 3 mL of selection buffer and then radioactivity bound to the filters was determined as a % of input radioactivity. Binding data is shown for both unselected 96-mer DNA and for two separate experiments with clone #29 96-mer. All proteins were tested at about 1M concentration except human serum albumin which was used at 100M.

TPA = assay: Filter binding specificity assay (Table 11), TPA; settings: TPA about 1 µM
Experimental: as §1

Kallikrein = assay: Filter binding specificity assay (Table 11), kallikrein; settings: Kallikrein about 1 µM
Experimental: as §1

Prothrombin = assay: Filter binding specificity assay (Table 11), prothrombin; set-up: dose or concentration left out as unconfirmed; settings: listed as Clone 29 DNA
Experimental: as §1

Trypsin = assay: Filter binding specificity assay (Table 11), trypsin; set-up: dose or concentration left out as unconfirmed
Experimental: as §1

Chymotrypsin = assay: Filter binding specificity assay (Table 11), chymotrypsin; settings: Chymotrypsin about 1 µM
Experimental: as §1

thrombin [3] = assay: Filter binding specificity assay (Table 11), thrombin; settings: DNA about 1 nM
Experimental: as §1

thrombin [4] = assay: Nitrocellulose filter binding, dissociation constant for thrombin; set-up: species or system human
Experimental: Filter binding assays using aptamer DNA from 14 of the clones were used to determine the dissociation constants (KD) for thrombin as follows: Thrombin concentrations between […] and 1 nM were incubated at room temperature in selection buffer for 5 minutes in the presence of […] of radiolabeled 96-mer derived from cloned Round 5 aptamer DNA. After incubation, the thrombin and aptamer mixture was applied to nitrocellulose filters (0.2 micron, 2.4 cm diameter) that were pretreated with salmon sperm DNA (1 mg/ml DNA in selection buffer) and washed twice with 1 ml selection buffer. After application of thrombin mixture, the filters were washed three times with 1 ml selection buffer. The radioactivity retained on the filters was then determined. KD values for the individual clones ranged from 50 to >2000 nM.
One of these two clones (#17) and the original unselected pool was analyzed for thrombin binding by nitrocellulose filter assay described above using DNA labeled with ^32 P to permit analysis of thrombin binding characteristics. The labeled DNA was synthesized by PCR and contained 5-(1-pentynyl)-2'-deoxyuridine in order to retain the original selected DNA structures. The DNA was incubated with thrombin at various concentrations between 10 nM and 10M to obtain the KD values for thrombin binding. The KD of the unselected pool was […] while the KD of clone 17 was 400 nM. […]

Plasmin = assay: Filter binding specificity assay (Table 11), plasmin; set-up: dose or concentration left out as unconfirmed
Experimental: as §1

thrombin [5] = assay: Prothrombin time test (PT) after intravenous aptamer in monkeys; type: in vivo, cynomologous monkeys; settings: high dose infusion 0.5 mg/kg/min
Experimental: Two thrombin aptamers were administered to adult male cynomologous monkeys. Unsubstituted 15-mer DNA with the sequence 5' GGTTGGTGTGGTTGG 3' and an analog, 5' GGTTGGTGTGGTT*G*G 3', containing thioate internucleotide linkages at the indicated positions were used. Aptamer was delivered as an intravenous bolus or infusion and then blood samples were withdrawn at various times after delivery of the bolus or during and after infusion. The catheter was heparinized after the 10 minute timepoint. The animals were not systematically heparinized.
Thrombin inhibition was measured by a prothrombin time test (PT) using a commercially available kit, reagents and protocol (Sigma Diagnostics, St. Louis, catalog Nos. T 0263 and 870-3). Inhibition of thrombin was indicated by an increased clot time compared to the control in the PT test. Clot times were obtained by withdrawing a sample of blood, spinning out red cells and using the plasma in the PT test. Control thrombin PT clot time values were obtained several minutes prior to administration of aptamer. Briefly, the PT assay was conducted using 0.1 mL of monkey plasma prewarmed to 37 C. and 0.2 mL of a 1:1 mixture of thromboplastin (used according to manufacturers instructions) and CaCl2 (25 mM), also prewarmed to 37 C. Thrombin clot times were measured with a fibrometer as described above. […]

human blood = assay: Extracorporeal hemodialysis circuit blood coagulation; settings: heparin 1 U/mL
Experimental: A bolus of 15-mer DNA was delivered to human blood at 37 C. to give an aptamer concentration of 10M. The blood was contained in an extracorporeal hemodialysis circuit (Travenol, Model No. CA-90). Pressure proximal to the hemodialysis filter was monitored to determine the time after administration of aptamer that coagulation occurred. Blood coagulation was marked by a pressure increase from about 50 mm Hg observed with uncoagulated blood (blood flow rate 200 mL/min) to pressure of at least 400 mm Hg.

ancrod = assay: Ancrod fibrinogen clotting assay; type: biochemical
Experimental: The thrombin 21-mer ancrod assay was conducted as follows. Ancrod was suspended in sterile water at a concentration of 44 U/mL. 10 L ancrod solution was added to 95 L of selection buffer prewarmed to 37 C. 100 L of this mixture was transferred to the coagulation cup of the fibrometer described above, followed by addition of 200 L of fibrinogen and 20 L of 21-mer DNA (both prewarmed to 37 C). TE buffer pH 7.0 was used as a control lacking DNA. The control clot time was 25 seconds while the clot time in the presence of 500 nM 21-mer was 24 seconds and was 26 seconds in the presence of 33M 21-mer.

In the case of “GGTTGGTGTGGTTGG#G#T: closely related 17-mer with MEA linkages”, the Ki (thrombin [1]) is reported as 0.035 µM.

5' GGTTGGG 3' gave a thrombin clotting time (thrombin [2]) of 38 s.

For “5' CGGGGAGAGGTTGGTGTGGTTGGCAATGGCTAGAGTAGTGAC GTTTTCGCGGTGAGGTCC 3' [Clone #29]”, the “% Bound” value (human serum albumin) was 2.0% and < 0.5%, the “% Bound” value (TPA) was < 0.5% and the “% Bound” value (Kallikrein) was < 0.5%. For the same substance, the “% Bound” value (Prothrombin) was 11.0% and 9.5%, the “% Bound” value (Trypsin) was < 0.5% and the “% Bound” value (Chymotrypsin) was < 0.5%. For the same substance, the “% Bound” value (thrombin [3]; Control, no protein) was 0%, the “% Bound” value (thrombin [3]; Thrombin about 1 µM) was 59.0% and the Kd (thrombin [4]) was ~0.2 µM. The “% Bound” value (Plasmin) was 15.0%.

For 5' GGTTGGTGTGGTT*G*G 3', the Ki (thrombin [1]) was 0.04 µM and the “PT clot time during infusion” value (thrombin [5]) was 2.5 to 2.7 times the control value.

5' GGGGGTT 3' [reference compound] was tested, and the thrombin clotting time (thrombin [2]) was 26 s.

Substance “GGTTGGTGTGGTU'GG: 15-mer with 5-(1-pentynyl)uracil” has a Ki (thrombin [1]) of 0.02 µM.

“GG(dU)TGGTGTGG(dU)TGG: 15-mer with uracil for thymine” showed a Ki (thrombin [1]) of 0.08 µM.

With heparin the “time to blood coagulation in hemodialysis unit” value (human blood) was > 80 min.

Substance “5' GGTTGGGCTGGTTGGGTTGGG 3' (chemistry not given here) [Compound 21-mer, 21-mer thrombin aptamer]” has a clot time (ancrod; 500 nM 21-mer) of 24 s and a clot time (ancrod; 21-mer) of 26 s.

In the case of “G*G*T*T*G*G*T*G*T*G*G*T*T*G*G: 15-mer with all thioate linkages”, the Ki (thrombin [1]) is reported as 0.28 µM.

Work on “GGTTGG(dU)G(dU)GGTTGG: 15-mer with uracil for thymine” yielded a Ki (thrombin [1]) of 0.015 µM.
